# Values quoted from earlier work in patent US20260048144A1, “SECRETED RNA THERAPEUTICS FOR NUCLEAR DELIVERY” (H. Lee Moffitt Cancer Center and Research Institute, Inc., priority 2022, published 2026).
# Key:
# [1] = tested in humans; Di Stasi et al. 2011
# [2] = infused in thousands of lymphoma and rheumatoid arthritis patients
Compound,safety / adverse effects in humans [1],side effect profile [2]
CC[C@H](C(=O)N1CCCC[C@H]1C(=O)O[C@H](CCc1ccc(OC)c(OC)c1)c1cccc(OCC(=O)NCCNC(=O)COc2cccc([C@@H](CCc3ccc(OC)c(OC)c3)OC(=O)[C@@H]3CCCCN3C(=O)[C@@H](CC)c3cc(OC)c(OC)c(OC)c3)c2)c1)c1cc(OC)c(OC)c(OC)c1 [AP1903],deemed safe without adverse effects,
Rituximab,,favorable side effect profile
